Literature values in patent publication US20050070512A1, “Pharmaceutical composition and methods comprising combinations of 2-alkylidene-19-nor-vitamin D derivatives and an estrogen agonist/antagonist” (Pfizer Inc, priority 2003, published 2005).

Test system: HL-60 cells

Compound	Induction of differentiation of HL-60 cells to the monocyte (in words)
C=C1[C@H](O)CC(=C/C=C2\CCC[C@]3(C)[C@@H]([C@H](C)CCCC(C)(C)O)CC[C@@H]23)C[C@H]1O [2-Methylene-19-Nor-1,25-(OH)2D3, 1α,25-dihydroxy-2-methylene-19-nor-vitamin D3]	activity similar to 1,25-(OH)2D3
C=C1[C@H](O)CC(=C/C=C2\CCC[C@]3(C)[C@@H]([C@@H](C)CCCC(C)(C)O)CC[C@@H]23)C[C@H]1O [2-Methylene-19-Nor-20S-1,25-(OH)2D3, (20S)-1α,25-dihydroxy-2-methylene-19-nor-vitamin D3]	extremely potent
